Molecules are shown by their SMILES.

Holding throughout (type): cell-based, human
Assay [1] concerns prostasin gene promoter (MDA-MB-435s cells). Put plainly: demethylation of prostasin gene promoter, genomic Southern blot. The settings on record: 500 nM, 8 days. An excerpt: (§1) High molecular weight genomic DNA was isolated from various cell lines as described in Chai, K X, Ward, D C, Chao, J, et al Molecular Clonings Sequence Analysis and Chromosomal Localization of the Human Protease Inhibitor 4 (kallistatin) gene (P14) Genomics 1994; 23:370-8. Genomic DNA frm each cell line was digested with the following restriction enzyme combinations:Xho I/BamH I (X/B), Xho I/BamH I/Hha (X/B/Hh), Xho I/BamH I/Aci I (X/B/A), Xho I/Bam H I.Bsa I (X/B/Bs),Xho I/Bam H I/Msp I(X/B/M) or Xho I/Bam H I/Hpa II(X/B/H) using 10 μg of DNA per digestion combination. The X/B cutting sites flank the CpG sies be to be investigated for differential methylation by the methylation-sensitive restriction endonucleases. The digests were resolved in a 0.8% agarose gel and analyzed by Southern blot hybridization as described in Chai, K X, Ward, D C, Chao, J et al. A nick translated prostasin promoter probe (bases 703-1,649) of the prostasin gene sequence, Genbank accession number U33446) was used for the hybridization. The base numbering of the prostasin gene sequence was described in Yu et al. […]

Assay [2] concerns prostasin mRNA (MDA-MB-435s cells). Put plainly: reactivation of prostasin expression, RT-PCR/Southern blot. On the procedure:
(§2) Cells grown to 80% confluence (in […] tissue culture dish) were lysed directly with 1 ml of the Trizol Reagent (life Technologies) and RNA was isolated according to the manufacturer's protocol. The human prostasin-specific RT-PCR/Southern blot analysis was performed as described in Yu, J X, and Chao,J Molecular Cloning, tissue-specific expression and cellular localization of human prostasin mRNA. J Biol Chem 1995; 270:12483-4. One microgram of total RNA was used in the RT-PCR with 2 human prostasin gene-specific oligonucleotide primers, and a Southern blot of the resolved RT-PCR samples was probed with a third prostasin gene-specific oligonucleotide, detecting an amplified 232 bp fragment. A co-amplification of the β-actin mRNA for control of RNA quality and quantity was performed as described in Chen Hodge and Guarda, et al.
(§3) For demethylation of prostasin gene promoter, MDA-MB-231 and MDA-MB-435s cells were seeded in 100 mm dishes at an initial density of 50% confluence and cultured in the presence of 500 nM 5-aza-2′-deoxycytidine (5-aza-2′dC; Sigma-Aldrich) for 8 days with renewal of medium and 5-aza-2′-dC performed at 2 day intervals. Genomic DNA was then isolated for Southern blot analysis as described. For reactivation of prostasin expression, MDA-MB-231 and MDA-MB-435s cells were seeded in 60 mm dishes at 80% confluence and cultured in the presence of 500 nM 5-aza-2′-dC for 24 hr, and were then treated for an additional 24 hr with either 1 μM trichostatin A (TSA; Sigma Aldrich) or an equal volume of 95% ethanol used to dissolve TSA. For measuring time-dependence of prostatin gene reactivation, cells were treated as described above but were harvested at 6 or 12 hr after the addition of TSA. RNA was isolated for prostasin-specifric RT-PCR/Southern blot analysis as described. The MCF-7 and the MDA-MB-453 cell ines were subjected tot the same 5-aza-2′-dC/TSA treatment and prostasin RT-PCR Southern blot analysis procedures.

In assay [3] the test system is prostasin mRNA (MDA-MB-231 cells). Described as above. To be noted: MDA-MB-231, 500 nM 5-aza-2′-dC 24 hr followed by 95% ethanol (solvent for TSA). On the procedure:
as §2, §3

The test system of assay [4] is prostasin gene promoter (DU-145 cells). Put plainly: demethylation of prostasin gene promoter, genomic Southern blot. To be noted: DU-145, 8 days.
Text: as §1

In assay [5] the test system is prostasin gene promoter (PC-3 cells). The description is as above. The settings on record: PC-3, 8 days.
Text: as §1

Assay [6] relates to prostasin mRNA (DU-145 cells). Description: reactivation of prostasin expression, RT-PCR/Southern blot. The settings on record: DU-145, after 8 days 5-aza-2′-dC. On the procedure: as §2
(§4) Du-145 and […] an additional 24 hours with either 1 μM trichostatin A (TSA, Sigma-Aldrich Co.) or an equal volume of 95% ethanol used to dissolve TSA. TNA was isolated for prostasin-specific RT-PCR/Southern blot analysis as described in example 1.

For assay [7], the system named is prostasin mRNA (PC-3 cells). Described as above. To be noted: PC-3, after 8 days 5-aza-2′-dC. On the procedure:
as §2, §4

In the case of `Nc1ncn([C@H]2C[C@H](O)[C@@H](CO)O2)c(=O)n1` [5-aza-2′-dC, 5-aza-2′-deoxycytidine], the “demethylation of prostasin promoter-exon 1 region” value in assay [1] is recorded as “significant level of demethylation”. The “prostasin mRNA re-expression” value in assay [2] (500 nM 5-aza-2′-dC 24 hr followed by 95% ethanol (solvent for TSA)) and in assay [3] was “did not result in prostasin mRNA re-expression” throughout. Moreover, the “prostasin mRNA expression” value in assay [2] (after 8-day 5-aza-2′-dC treatment) is recorded as “failed to detect prostasin mRNA expression”; in assay [6] it was “no prostasin mRNA expression was detected”; in assay [7], “no prostasin mRNA expression was detected”. Moreover, the “demethylation of prostasin promoter” value in assay [4] and in assay [5] was “significant level of demethylation” throughout.
